Experimental data: patent US10300107B2, “Compositions and methods for CaMKII inhibitors and uses thereof” (THE REGENTS OF THE UNIVERSITY OF COLORADO, priority 2007, dated 2019)
Entries after “also recorded” stand apart in the source; their conditions may differ. Where no end group is shown, it is not given here.

Assays:
CaMKII [1] = assay type: biochemical
Description: (§1) CaMKII activity assays. Standard CaMKII assays were done for 1 min at 30° C. previously described, with 20 nM CaMKII (subunit, not holoenzyme concentration), 50 mM PIPES pH 7.2, 0.1 mg/ml BSA, 10 mM MgCl2, 100 μM [γ-^32P] ATP (˜1 Ci/mmol), 1 mM CaCl2, 1-2 μM CaM, and 30-60 μM AC2 peptide (or syntide2). The reactions were spotted onto Whatman P81 phosphocellulose paper rectangles (˜2×2.5 cm). To remove free radioactivity, the paper rectangles were rinsed and washed for 30 min under agitation in 0.5% phosphoric acid or water. […] Radioactivity of the bound peptides was quantified in a Beckman 6000TA scintillation counter by the Cherenkov method. Any changes of the standard protocol were done as indicated. For assays of the GFP-CaMKIIα mutants, kinase amounts were normalized by GFP fluorescence in the extract, and total protein was adjusted with Cos-7 extracts.

CaMKII [2] = experiment: Kinase panel (kinase profiling service): CaMKII; assay type: biochemical
CaMKI = CaMKI (Homo sapiens, UniProt Q14012); experiment: CaMKI activity / inhibition; assay type: biochemical
Sequence of CaMKI (Q14012 whole entry, species assumed): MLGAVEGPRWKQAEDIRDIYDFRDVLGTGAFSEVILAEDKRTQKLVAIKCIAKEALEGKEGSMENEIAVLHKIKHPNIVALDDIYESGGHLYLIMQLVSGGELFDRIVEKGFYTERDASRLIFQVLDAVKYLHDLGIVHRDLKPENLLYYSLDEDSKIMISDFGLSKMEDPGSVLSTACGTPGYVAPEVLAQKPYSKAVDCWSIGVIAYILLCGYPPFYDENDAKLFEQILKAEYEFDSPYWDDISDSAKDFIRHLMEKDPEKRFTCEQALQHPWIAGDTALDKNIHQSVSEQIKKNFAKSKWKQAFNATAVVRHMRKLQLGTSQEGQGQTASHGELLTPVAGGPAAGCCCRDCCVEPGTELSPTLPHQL
From the text: For curve fit, the Hill coefficient was set as 1.

[3] = molecular target: T1, CaMKII binding to GST-NR2B-c (Homo sapiens, UniProt Q9UQM7); experiment: Ca2+/CaM-induced CaMKII binding to immobilized GST-NR2B-c; conditions: Western blot of eluted CaMKII
T1 construct: made in house; host or cells: CaMKII: baculovirus/Sf9; GST-NR2B-c and CaM: bacteria
Description: CaMKII binding to NR2B-c was assessed as previously described. Briefly, GST-NR2B-c was immobilized on anti-GST coated microtiter plates, then overlaid with 100 nM CaMKII in presence of Ca^2+/CaM and 1 or 5 μM of various CN peptides. After extensive wash, protein was eluted from the plates by boiling in SDS-loading buffer. Eluted CaMKII was detected by Western-blot as described above.

CaMKII [4] = molecular target: T2, CaMKII (Homo sapiens, UniProt Q9UQM7); experiment: CaMKII auto- and protein-phosphorylation (MAP2, T286, T305; immuno-blot); assay type: biochemical; conditions: for CaMKII T286 auto-phosphorylation: CN peptides 1-5 μM; for CaMKII T286 auto-phosphorylation / CaMKII T305 auto-phosphorylation: KN93 10 μM; for CaMKII T305 auto-phosphorylation: CN21 5 μM
T2 construct: made in house; host or cells: baculovirus/Sf9 cells
Description: CaMKII auto- and protein-phosphorylation. 10 nM MAP2 (˜140 nM phosphorylation sites) was used instead of substrate peptide, and reaction times were 5 min, unless indicated otherwise. CaMKII concentration was 100 nM subunits (=8.3 nM holoenzymes). Auto- and MAP2-phosphorylation were assessed by Immuno-blot analysis previously derived (Bayer et al., 2002, incorporated herein by reference) with phospho-T286- or -T305-specific antibodies (1:500; PhosphoSolutions) and an anti-phospho-Thr antibody (1:500; Zymed), respectively. Total CaMKIIα was detected with CBα2 antibody (1:2000; GIBCO). Protein were separated on 10% poly-acrylamid SDS Gels, and electro-blotted onto “Protran” 0.2 μm pore nitrocelluse filters (e.g. Schleicher & Schull) or onto PVDF filters (e.g. Perkin Elmer). Alternatively, for quantitative analyses, a vacuum-driven slot-blot manifold (e.g. Schleicher & Schull) was used for transfer onto PVDF membranes. PVDF membranes were air-dried for 15 min, then wetted in Methanol. Blots were blocked in 5% milk in TBS-T (Tris-buffered saline pH 7.6 with 0.1% Tween-20). Antibodies were incubated for 45-60 min at room temperature in 2.5% milk in TBS-T; for the anti-phospho-T305 antibody, 2.5% BSA was used instead. After secondary antibody incubation (anti-mouse or anti-rabbit horseradish peroxidase conjugate; Amersham; 1:4000), detection was done using the “Western Lightning” system (Perkin Elmer) and exposure to “Hyperfilm” (Amersham). For quantitative analysis, chemoluminescence was captured using a ChemiImager 4400 imaging system (Alpha Innotek) instead of film. Only non-saturated images were analyzed, using AlphaEase software.

hippocampal neurons = experiment: Imaging of neuronal filopodia motility; assay type: cell-based, rat; conditions: 20 min incubation
Description: In another example, motility of hippocampal neurons was analyzed. […] Images of GFP expressing hippocampal neurons (5-6 days in vitro) were acquired at 30° C. in 20 s intervals in order to assess motility.
Imaging of neuronal filopodia motility was done similarly as previously described. Hippocampal cultures were prepared from newborn Sprague Dawley rats (Harlan) as previously described, plated onto poly-D-lysine coated glass bottom dishes (MatTek) at a density of ˜2.5×10^6 cells/cm^2 and maintained in Neurobasal A medium with penicillin/streptomycin (50 units/ml), glutamax (2 mM) and B27 supplement (Invitrogen). […] After 5 days in vitro, neurons were transfected with a GFP expression construct (Clonetech) using lipofectamine 2000 (Invitrogen), as described. On the next day neurons were imaged in culture medium on for example, a Zeiss Axiovert 200M systems equipped with a 40× oil immersion objective, Cool Snap HQ CCD camera (Roeper Scientific), Xenon lamp LB-LS/17 (Sutter Instruments) and climate control set to 30° C. and 5% CO2. Fluorescence Images were acquired and analyzed using SlideBook software (Intelligent Imaging Innovations). 16 images were taken in 20 s time intervals, at 100 ms exposure time and bin factor 2. Subtraction image (Δ image) stacks were generated by subtracting one stack (first image deleted) from its duplicate (last image deleted). […]

Langerhans' islets = experiment: Glucose-induced insulin secretion from isolated Langerhans' islets; assay type: cell-based, rat; conditions: 11 mM glucose; EGTA 0.5 mM, KN93 10 μM, antCN27 5 μM, tatCN21 5 μM
Description: Insulin secretion. Langerhans' islets acutely isolated from adult male Wistar rats (Harlan) were obtained. […] Inhibitors or EGTA were added 30 min before stimulation. Insulin secreted into the medium during 90 min stimulation was measured using an ELISA kit (CrystalChem).

[5] = test system: hippocampal and cortical cultures; experiment: Glutamate induced neuronal cell death measured by LDH release; assay type: cell-based, rat
Description: In another example, neuronal cell death is measured by LDH release. In this exemplary method, glutamate was used to induce neuronal cell death, A portion of CaMKIIN was fused to a cell penetrating molecule to generate tatCN21a construct.

[6] = test system: 10DIV hippocampal neurons; experiment: NMDA induced cell death; assay type: cell-based; conditions: NMDA plus CNQX 5 minutes, assayed 24 hours after insult
Description: Neurons were co-transfected with siRNA or non-targeting RNA (NT) at 8DIV and were assayed at day 10. […] Cells were treated with 300 mM NMDA plus 50 mM CNQX (an AMPAR inhibitor) for 5 minutes and cell death was assayed 24 hours after insult. […] Increased AMPAR expression is thought to lead to increased cell death. Thus, by inducing cell death with NMDA and an AMPAR inhibitor, the AMPAR component was reduced.

CaMKII [7] = molecular target: T2, CaMKII; experiment: Autonomous CaMKII activity (pre-autophosphorylated CaMKII); assay type: biochemical
Description: (§2) Stimulated CaMKII activity was assessed using purified CaMKII, [γ^32P]ATP, and the CaMKII substrate, syntide2. Reaction was initiated by addition of calcium and calmodulin. To measure autonomous activity, CaMKII was pre-autophosphorylated by incubation with calcium and calmodulin, which was then chelated by addition of EDTA prior to adding the kinase to syntide2 and [γ^32P]ATP. […] To measure self-association, purified CaMKII was incubated for five minutes with 1mM ADP, calcium and calmodulin, and the appropriate inhibitor. The reaction mixture was then centrifuged to pellet the self-associated kinase. The supernatant (S) was removed and saved and the pellet (P) was resuspended. Both were then resolved by SDS-PAGE and western-blotted for CaMKII. Self-associated kinase is found in the pellet.

CaMKII [8] = molecular target: T2, CaMKII; experiment: CaMKII self-association in vitro; assay type: biochemical
Description: as §2

calmodulin (CaM) = calmodulin (CaM) (Homo sapiens, UniProt P0DP23); experiment: Binding to calmodulin (slot blot, blot overlay, TA-CaM competition with CBD)
Description: TA-labeled CaM represents reduced fluorescence after binding to CaMKII or its CaM binding domain (CBD; −0.05 nM kD for CaM^5; see also FIG. 9G).
Measured was AC2 phosphorylation as described^4. Error bars show s.e.m.

[9] = test system: other kinases of the panel (CaMKIV, PKA, PKCα, JNK1α1, MAPK1, raf); assay type: biochemical; conditions: 5 μM peptide
Description: Kinase panels. A panel of different kinases was tested utilizing a kinase profiling service (Upstate Biotechnology). 40 min reactions at room temperature contained 0.1% BSA and were started by addition of 10 mM MgAcetate and [γ-^33P-ATP], stopped by 0.1% phosphoryic acid, spotted on filter mats, and washed 3×5 min in 75 mM phosphoric acid and 1× in methanol prior to drying and scintillation counting. CaMKII and IV were activated by 5 mM CaCl2 and 1.7 μM CaM in 40 mM Hepes pH 7.4; substrate was 30 μM […] (SEQ ID NO:22). Buffers and substrates for the other kinases are stated in brackets: PKA (8 mM MOPS pH 7, 0.2 mM EDTA; 30 μM Kemptide), PKCα (20 mM Hepes pH 7.2, 0.3% Triton X-100, 0.1 mg/ml phosphatidylserine, 10 μg/ml diacylglycerol; 0.1 mg/ml histone H1), JNK1α1 (50 mM Tris pH 7.5, 0.1 mM EGTA, 0.1% β-mercapto-ethanol; 3 μM ATF), MAPK1 and raf (25 mM Tris, pH 7.5, 0.02 mM EGTA; 250 μM proprietary substrate and 0.66 mg/ml myelin basic protein, respectively). Reactions in presence of 5 μM CN21a were done in duplicate, and normalized to four parallel reactions without inhibitor.

[10] = molecular target: T3, CaM dissociation from CaMKII (Homo sapiens, UniProt Q9UQM7); experiment: TA-CaM dissociation from CaMKII; assay type: binding; conditions: 5 μM; 150 nM CaMKII, 30 nM TA-CaM
T3 construct: made in house; host or cells: baculovirus/Sf9 cells (CaMKII)
Description: TA-CaM dissociation was assessed by increased TA-CaM (30 nM) fluorescence after dissociation from CaMKII or its CaM-binding domain (CBD) (150 nM) during a chase with unlabeled CaM (60 μM). Buffer contained 50 mM Hepes pH 7.4, 150 mM KCl, 2 mM MgCl2, 2 mM MgADP, 2 mM CaCl2, and 0.1 mg/ml BSA. Fluorescence was measured in a time scan (1 sec samples) at 365 nm excitation and 415 nm emission wavelength on a spectro-fluorometer (Fluorolog3; Horiba Jobin Yvon) and was corrected for photobleach (FIG. 16).

CaMKII [11] = molecular target: T2, CaMKII; experiment: CaMKII phosphorylation of crude liver extracts or GST-NR2B-c (autoradiography); assay type: biochemical; conditions: 5 μM
Description: Crude liver extracts or NR2B-c were phosphorylated with 100 nM autophosphorylated CaMKII, 2 μM CaM and 40 μM [γ-^32P]-ATP (˜2 Ci/mmole). Pre-auto-phosphorylation (of 300 nM CaMKII) was done for 5 min on ice, in presence of 3 mM CaCl2, 6 μM CaM and 120 μM unlabelled ATP. After addition of [γ-^32P]-ATP and inhibitors as indicated, 2 min reactions at 30° C. were started by addition of substrate protein extract (⅓^rd to 1/12th of total reaction volume), and stopped with 25 mM EDTA. Phosphorylation was detected by autoradiography after gel electrophoresis.

[12] = test system: CaMKII T-site mutants W237R and 1205K; experiment: Kinase assay with GFP-CaMKIIα T-site mutants; assay type: biochemical; conditions: substrate syntide2
From the text: In another example, FIG. 3. […] FIG. 3A represents a model of CaMKII kinase domain (Rosenberg et al., 2005) with the substrate binding S-site (indicated), the T286-region binding T-site (indicated), and the regulatory region (shown as ribbon). The arrow indicates the proposed orientation of CN21a binding to the T-site, when the regulatory region is displaced after activation. […] Results are normalized to maximal kinase activity without inhibitor. Error bars show s.e.m. […] Bound CaMKII was eluted and detected by Western blot.
as §1

tatCN21: CN21 fused to the cell penetrating tat sequence (YGRKKRRQRRRKRPPKLGQIGRSKRVVIEDDR)
CaMKII-mediated AC2/AC3 phosphorylation at varying CaM concentrations (CaMKII [1]; 1 μM peptide): strongly inhibited | calcium and calmodulin stimulated CaMKII activity (CaMKII [1]; substrate syntide2): inhibit calcium and calmodulin stimulated CaMKII activity | CaMKII activity in kinase panel (CaMKII [2]; 1 μM peptide): completely blocked CaMKII activity | CaMKII activity in kinase panel (CaMKII [2]; 5 μM peptide): blocked CaMKII activity | effect on CaMKI activity (CaMKI): dramatically reduces CaMKI activity | CaMKII binding to immobilized GST-NR2B-c / NR2B [3]: efficiently blocked | CaMKII binding to immobilized GST-NR2B-c / NR2B ([3]; listed as TatCN21): inhibited binding | MAP2 (substrate) phosphorylation by CaMKII (CaMKII [4]; 1-5 μM peptide): blocked MAP2 | CaMKII T286 auto-phosphorylation (CaMKII [4]): not T286 phosphorylation | motility in hippocampal neurons (hippocampal neurons): inhibits motility in hippocampal neurons | glucose-induced insulin secretion (Langerhans' islets): inhibited | glutamate induced cell death ([5]; 7DIV cortical, added 1-6 hours post insult): inhibits glutamate induced cell death | glutamate induced neuronal cell death ([5]; added 1 h after the insult): protective also when added 1 h after the insult | glutamate induced neuronal cell death ([5]; added 1 h after the insult, listed as tatCN21a): also when added 1h after the insult | glutamate induced neuronal cell death ([5]; present during the insult): reduce by half | glutamate induced neuronal cell death ([5]; present during the insult, listed as tatCN21a): inhibited glutamate induced neuronal cell death | NMDA induced cell death [6]: reduces NMDA-induced cell death | autonomous CaMKII activity (CaMKII [7]): inhibits autonomy; also recorded: blocks not only stimulated but also autonomous CaMKII activity | CaMKII self-association in vitro (CaMKII [8]): inhibited | competition with CBD for binding of TA-labeled CaM (calmodulin (CaM)): did not show any competition and not

KRPPKLGQIGRSKRVVIEDDR [CN21]
inhibition of CaMKII isoforms α and β (CaMKII [1]): inhibit both major brain CaMKII isoforms, α and β | inhibitory potency on CaMKII activity (CaMKII [1]; CN truncation peptides, substrate peptides AC2 or syntide 2, listed as CN21a): contains the full inhibitory potency; also recorded: full inhibitory effect | IC50 (CaMKII [1]; phosphorylation of syntide 2, read-out: IC50 of CaMKII inhibition): ~100 nM | mechanism of CaMKII inhibition (CaMKII [1]; versus substrate AC2, Lineweaver-Burk plot): competitive with AC2 | CaMKII activity in kinase panel (CaMKII [2]; 5 μM peptide): completely blocked | activity of the other kinases of the panel [9]: not affected | effect on CaMKI activity (CaMKI): no significant effect | CaMKII binding to immobilized GST-NR2B-c / NR2B [3]: efficiently blocked | CaM dissociation from CaMKII [10]: slowed down CaM dissociation from CaMKII | CaMKII T305 auto-phosphorylation (CaMKII [4]): blocked T305 | CaMKII T305 auto-phosphorylation (CaMKII [4]; listed as CN21a): blocks | CaMKII T286 auto-phosphorylation (CaMKII [4]): no significant effect | CaMKII T286 auto-phosphorylation (CaMKII [4]; listed as CN21a): not T286 autophosphorylation | CaMKII phosphorylation of bacterially expressed GST-NR2B-c (CaMKII [11]): blocks CaMKII phosphorylation | CaMKII phosphorylation of crude liver protein extracts (CaMKII [11]): blocks CaMKII phosphorylation | activity of CaMKII T-site mutants W237R and 1205K compared to GFP-CaMKIIα wild type [12]: significantly less affected
